Measurements taken from patent US11052092B2, “N-{[2-(piperidin-1-yl)phenyl](phenyl)methyl}-2-(3-oxo-3,4-dihydro-2H-1,4-benzoxazin-7-yl)acetamide derivatives and related compounds as ROR-gamma modulators for treating autoimmune diseases” (Genfit, priority 2017, dated 2021).

Assays:
[1] = test system: Murine EL-4 lymphoma cell line overexpressing human RORγt; experiment: IL-17 secretion from EL4 murine lymphoma; type: cell-based; conditions: Mus musculus; human RORγt-transfected EL4 cells, PMA (10 ng/mL) and ionomycin (1 μM), 24 h; read-out: IC50, IL-17 secretion inhibition
Protocol: Murine EL-4 lymphoma cell line overexpressing human RORγt was used in this functional assay to assess compound ability to inhibit IL-17 cytokine secretion.
EL-4 cells are maintained in a standard culture medium RPMI supplemented with 10% fetal calf serum, 1% sodium pyruvate, 1% essential amino acids and 1% antibiotics at 37° C. in a humidified atmosphere of 5% CO02 and 95% air. Culture medium was changed every 2 days. EL4 cells were transfected with a plasmid encoding hRORγt (sequence identical to published sequence NM 001001523). […] Briefly, 1 μg of DNA/1 million cells was served to transfect EL-4 cells. Cell/DNA suspension was transferred into certified cuvette and the electroporation of RORγt plasmid was carried out using appropriate Nucleofector® program.
Cells were seeded in 96 well plates at a density of 150000 cells/I well then treated with compounds of this invention at indicated concentrations and incubated for 24 hours at 37° C. in a humidified atmosphere of 5% C02 and 95% air. EL-4 cells were pretreated with test compounds (RORγ modulators) and stimulated with PMA (10 ng/mL) and ionomycin (1 μM final concentration) in the presence of test compound concentrations for additional 24 h at 37° C. in a humidified atmosphere of 5% C02 and 95% air. Subsequently, supernatants were collected (after centrifugation at 300 g for 10 minutes) to determine the concentrations of IL-17 by HTRF (CisBio, France) or ELISA (R&D Systems Europe) according to the manufacturer's protocols.

human RORγt = target: T1, human RORγt (Homo sapiens, UniProt P51449); experiment: RORE Luciferase/RORγt transactivation assay; type: cell-based; conditions: COS-7 cells transfected with human IL-17 promoter luciferase reporter and RORγt plasmid; 20 h with compound; read-out: IC50, RORγt activity inhibition
T1 construct: the full-length cDNA of human RORγt; expressed in transfected cells; host or cells: COS-7 (monkey kidney)
T1 sequence (P51449 1-497 isoform P51449-2): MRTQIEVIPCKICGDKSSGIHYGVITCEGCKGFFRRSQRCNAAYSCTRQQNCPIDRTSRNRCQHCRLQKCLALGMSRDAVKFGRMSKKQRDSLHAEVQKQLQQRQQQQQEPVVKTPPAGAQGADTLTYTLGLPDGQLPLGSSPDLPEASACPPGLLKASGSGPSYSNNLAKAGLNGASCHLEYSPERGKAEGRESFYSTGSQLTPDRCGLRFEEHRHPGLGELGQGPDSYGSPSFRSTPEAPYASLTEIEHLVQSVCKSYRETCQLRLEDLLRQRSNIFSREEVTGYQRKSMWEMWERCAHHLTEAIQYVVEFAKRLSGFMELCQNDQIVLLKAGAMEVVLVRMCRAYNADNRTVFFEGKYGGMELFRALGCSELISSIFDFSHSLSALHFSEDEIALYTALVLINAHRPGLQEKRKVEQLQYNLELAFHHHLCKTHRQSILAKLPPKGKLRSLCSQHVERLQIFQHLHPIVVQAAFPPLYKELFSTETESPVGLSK
Method in brief: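 COS-7 cells were transiently co-transfected with a human IL-17 promoter (RORE/CNS)–luciferase reporter and a RORγt expression plasmid, then seeded at 10000 cells/well in serum-free, phenol red-free DMEM. Compounds were added at 0.3% DMSO final. Luciferase was read with Steady-Glo, and IC50 and Emax were derived.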

IC50 [1] [nM]	IC50 (human RORγt) [nM]	Compound
100 to 1000	10 to 100	Cc1ccc(C(NC(=O)Cc2ccc3ccn(C(=O)N4CCOCC4)c3c2)c2ccc(C)o2)c(N2CCCCC2)c1 (stereo not shown) [Cpd. 114, N-{[4-methyl-2-(piperidin-1-yl)phenyl](5-methylfuran-2-yl)methyl}-2-[1-(morpholine-4-carbonyl)-1H-indol-6-yl]acetamide]
< 100	< 10	Cc1ccc(C(NC(=O)C2(c3ccc4c(c3)CC(=O)N4)CC2)c2ccc(C)o2)c(C)c1 (stereo not shown) [Cpd. 61, N-[(2,4-dimethylphenyl)(5-methylfuran-2-yl)methyl]-1-(2-oxo-2,3-dihydro-1H-indol-5-yl)cyclopropane-1-carboxamide]
< 100	10 to 100	Cc1ccc(C(NC(=O)C2(c3ccc4[nH]cc(CCO)c4c3)CC2)c2ccc(Cl)o2)c(C)c1 (stereo not shown) [Cpd. 62, N-[(5-chlorofuran-2-yl)(2,4-dimethylphenyl)methyl]-1-[3-(2-hydroxyethyl)-1H-indol-5-yl]cyclopropane-1-carboxamide]
100 to 1000	10 to 100	Cc1ccc(C(NC(=O)C2(c3ccc4c(c3)CS(=O)(=O)C4)CC2)c2ccc(Cl)o2)c(C)c1 (stereo not shown) [Cpd. 72, N-[(5-chlorofuran-2-yl)(2,4-dimethylphenyl)methyl]-1-(2,2-dioxo-1,3-dihydro-2-benzothiophen-5-yl)cyclopropane-1-carboxamide]
< 100	10 to 100	Cc1ccc(C(NC(=O)Cc2ccc3[nH]c(N4CCOCC4)nc3c2)c2ccc(C)o2)c(N2CCCCC2)c1 (stereo not shown) [Cpd. 93, N-{[4-methyl-2-(piperidin-1-yl)phenyl](5-methylfuran-2-yl)methyl}-2-[2-(morpholin-4-yl)-1H-1,3-benzodiazol-5-yl]acetamide]
100 to 1000	10 to 100	Cc1ccc(C(NC(=O)Cc2ccc3c(c2)CS(=O)(=O)C3)c2ccc(C)o2)c(N2CCCCC2)c1 (stereo not shown) [Cpd. 78, 2-(2,2-dioxo-1,3-dihydro-2-benzothiophen-5-yl)-N-{[4-methyl-2-(piperidin-1-yl)phenyl](5-methylfuran-2-yl)methyl}acetamide]
< 100	10 to 100	Cc1ccc(C(NC(=O)Cc2cc(C)c3c(c2)CC(=O)N3)c2ccc(C)o2)c(N2CCCCC2)c1 (stereo not shown) [Cpd. 54, N-{[4-methyl-2-(piperidin-1-yl)phenyl](5-methylfuran-2-yl)methyl}-2-(7-methyl-2-oxo-2,3-dihydro-1H-indol-5-yl)acetamide]
< 100	10 to 100	Cc1ccc(C(NC(=O)Cc2ccc3c(c2)CN(S(C)(=O)=O)C3)c2ccc(C)o2)c(N2CCCCC2)c1 (stereo not shown) [Cpd. 41, 2-(2-methanesulfonyl-2,3-dihydro-1H-isoindol-5-yl)-N-{[4-methyl-2-(piperidin-1-yl)phenyl](5-methylfuran-2-yl)methyl}acetamide]
100 to 1000	10 to 100	CNS(=O)(=O)c1c[nH]c2ccc(CC(=O)NC(c3ccc(C)o3)c3ccc(C)cc3N3CCCCC3)cc12 (stereo not shown) [Cpd. 115, N-{[4-methyl-2-(piperidin-1-yl)phenyl](5-methylfuran-2-yl)methyl}-2-[3-(methylsulfamoyl)-1H-indol-5-yl]acetamide]
100 to 1000	10 to 100	Cc1ccc(C(NC(=O)Cc2ccc3c(ccn3S(C)(=O)=O)c2)c2ccc(C)o2)c(N2CCCCC2)c1 (stereo not shown) [Cpd. 106, 2-(1-methanesulfonyl-1H-indol-5-yl)-N-{[4-methyl-2-(piperidin-1-yl)phenyl](5-methylfuran-2-yl)methyl}acetamide]
100 to 1000	10 to 100	Cc1ccc(C(NC(=O)Cc2ccc3c(c2)C(=NN)C(=O)N3)c2ccc(C)o2)c(N2CCCCC2)c1 (stereo not shown) [Cpd. 37, 2-(3-hydrazinylidene-2-oxo-2,3-dihydro-1H-indol-5-yl)-N-{[4-methyl-2-(piperidin-1-yl)phenyl](5-methylfuran-2-yl)methyl}acetamide]
100 to 1000	100 to 1000	Cc1ccc(C(NC(=O)Cc2ccc3c(c2)C(=NO)C(=O)N3)c2ccc(C)o2)c(N2CCCCC2)c1 (stereo not shown) [Cpd. 42, 2-[3-(hydroxyimino)-2-oxo-2,3-dihydro-1H-indol-5-yl]-N-{[4-methyl-2-(piperidin-1-yl)phenyl](5-methylfuran-2-yl)methyl}acetamide]
100 to 1000	10 to 100	Cc1ccc(C(NC(=O)Cc2ccc3[nH]cc(CCS(C)(=O)=O)c3c2)c2ccc(Cl)o2)c(N2CCCC2)c1 (stereo not shown) [Cpd. 112, N-[(5-chlorofuran-2-yl)[4-methyl-2-(pyrrolidin-1-yl)phenyl]methyl]-2-[3-(2-methanesulfonylethyl)-1H-indol-5-yl]acetamide]
< 100	10 to 100	Cc1ccc(C(NC(=O)C2(c3ccc4[nH]ccc4c3)CC2)c2ccc(C)o2)c(C)c1 (stereo not shown) [Cpd. 108, N-[(2,4-dimethylphenyl)(5-methylfuran-2-yl)methyl]-1-(1H-indol-5-yl)cyclopropane-1-carboxamide]
1000 to 10000	100 to 1000	Cc1ccc(C(NC(=O)Cc2ccc3c(c2)CS(=O)(=O)N3)c2ccc(C)o2)c(Br)c1 (stereo not shown) [Cpd. 28, N-[(2-bromo-4-methylphenyl)(5-methylfuran-2-yl)methyl]-2-(2,2-dioxo-1,3-dihydro-2,1-benzothiazol-5-yl)acetamide]
100 to 1000	100 to 1000	Cc1ccc(C(NC(=O)Cc2ccc3c(c2)CCC(=O)N3)c2ccc(C)o2)c(Br)c1 (stereo not shown) [Cpd. 36, N-[(2-bromo-4-methylphenyl)(5-methylfuran-2-yl)methyl]-2-(2-oxo-1,2,3,4-tetrahydroquinolin-6-yl)acetamide]
100 to 1000	10 to 100	CC(=O)N1CCc2cc(C3(C(=O)NC(c4ccc(C)o4)c4ccc(C)cc4C)CC3)ccc21 (stereo not shown) [Cpd. 126, 1-(1-acetyl-2,3-dihydro-1H-indol-5-yl)-N-[(2,4-dimethylphenyl)(5-methylfuran-2-yl)methyl]cyclopropane-1-carboxamide]
< 100	10 to 100	Cc1ccc(C(NC(=O)Cc2ccc3[nH]cc(CO)c3c2)c2ccc(C)o2)c(N2CCCCC2)c1 (stereo not shown) [Cpd. 58, 2-[3-(hydroxymethyl)-1H-indol-5-yl]-N-{[4-methyl-2-(piperidin-1-yl)phenyl](5-methylfuran-2-yl)methyl}acetamide]
< 100	10 to 100	Cc1ccc(C(NC(=O)C2(c3ccc4c(c3)CN(S(C)(=O)=O)C4)CC2)c2ccc(C)o2)c(N2CCCC2)c1 (stereo not shown) [Cpd. 73, 1-(2-methanesulfonyl-2,3-dihydro-1H-isoindol-5-yl)-N-{[4-methyl-2-(pyrrolidin-1-yl)phenyl](5-methylfuran-2-yl)methyl}cyclopropane-1-carboxamide]
100 to 1000	10 to 100	Cc1ccc(C(NC(=O)Cc2ccc3c(c2)CC(=O)N3C)c2ccc(C)o2)c(N2CCCCC2)c1 (stereo not shown) [Cpd. 38, N-{[4-methyl-2-(piperidin-1-yl)phenyl](5-methylfuran-2-yl)methyl}-2-(1-methyl-2-oxo-2,3-dihydro-1H-indol-5-yl)acetamide]
< 100	10 to 100	Cc1ccc(C(NC(=O)Cc2ccc3[nH]cc(CCO)c3c2)c2ccc(C)o2)c(N2CCCCC2)c1 (stereo not shown) [Cpd. 57, 2-[3-(2-hydroxyethyl)-1H-indol-5-yl]-N-{[4-methyl-2-(piperidin-1-yl)phenyl](5-methylfuran-2-yl)methyl}acetamide]
100 to 1000	10 to 100	Cc1ccc(C(NC(=O)C2(c3ccc4c(c3)CN(S(C)(=O)=O)C4)CC2)c2ccc(Cl)o2)c(N2CCCC2)c1 (stereo not shown) [Cpd. 80, N-[(5-chlorofuran-2-yl)[4-methyl-2-(pyrrolidin-1-yl)phenyl]methyl]-1-(2-methanesulfonyl-2,3-dihydro-1H-isoindol-5-yl)cyclopropane-1-carboxamide]
1000 to 10000	100 to 1000	Cc1ccc(C(NC(=O)Cc2ccc3[nH]cc(C(=O)CS(C)(=O)=O)c3c2)c2ccc(C)o2)c(C)c1 (stereo not shown) [Cpd. 107, N-[(2,4-dimethylphenyl)(5-methylfuran-2-yl)methyl]-2-[3-(2-methanesulfonylacetyl)-1H-indol-5-yl]acetamide]
